Test results taken from patent publication US20180251431A1 (VERTEX PHARMACEUTICALS INCORPORATED, priority 2016, published 2018).
Like-named read-outs stand apart in the source and are kept apart here.

Tested on: HEK293 cells
Test: HEK293 VLCFA-LPC IC50 determination (13C-labeled C26:0 LPC by UHPLC/MS)
Assay type: cell-based, human
Conditions: Homo sapiens, average of one or more replicates, read-out: Average HEK293 IC50
How it was run: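 Suspension HEK293 cells (final 0.5 million/mL after mixing with equal volume) incubated 48 hours with compound plus 13C-acetate (1.0 mg/mL in added media), shaking at 37° C. Lipids extracted with hexane/isopropanol or methanol, C13:0 LPC standard. UHPLC/MS of 13C-labeled C26:0 LPC (638.500/104.100 m/z); IC50 by four-parameter fit.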

[1] = HEK293, 48 h, 13C-labeled C26:0 LPC, 48 hours

| Structure (SMILES) | IC50 [1] [µM] | IC50 (HEK293, HEK293 cells) [µM] |
| --- | --- | --- |
| Cc1ccccc1C1(C(=O)Nc2ccn(-c3ccncc3)n2)CC1 [Compound 373, 1-(o-tolyl)-N-[1-(4-pyridyl)pyrazol-3-yl]cyclopropanecarboxamide] | 0.14 | – |
| Cc1csc(-n2ccc(NC(=O)C3(c4ccccc4F)CC3)n2)n1 [Compound 374, 1-(2-fluorophenyl)-N-(1-(4-methylthiazol-2-yl)-1H-pyrazol-3-yl)cyclopropane-1-carboxamide] | 0.47 | – |
| O=C(Nc1ccn(-c2ncco2)n1)C1(c2ccccc2F)CC1 [Compound 375, 1-(2-fluorophenyl)-N-(1-oxazol-2-ylpyrazol-3-yl)cyclopropanecarboxamide] | 0.5 | – |
| Cc1cc(-n2ccc(NC(=O)C3(c4ccccc4F)CC3)n2)cnc1F [Compound 376, N-[1-(6-fluoro-5-methyl-3-pyridyl)pyrazol-3-yl]-1-(2-fluorophenyl)cyclopropanecarboxamide] | 0.065 | – |
| O=C(Nc1ccn(-c2ccc(F)nc2)n1)C1(c2ccccc2F)CC1 [Compound 377, 1-(2-fluorophenyl)-N-[1-(6-fluoro-3-pyridyl)pyrazol-3-yl]cyclopropanecarboxamide] | 0.023 | – |
| COc1ncc(-n2ccc(NC(=O)C3(c4ccccc4F)CC3)n2)cc1Cl [Compound 378, N-(1-(5-chloro-6-methoxypyridin-3-yl)-1H-pyrazol-3-yl)-1-(2-fluorophenyl)cyclopropane-1-carboxamide] | 0.12 | – |
| O=C(Nc1ccn(-c2cnc(Cl)c(Cl)c2)n1)C1(c2ccccc2F)CC1 [Compound 379, N-[1-(5,6-dichloro-3-pyridyl)pyrazol-3-yl]-1-(2-fluorophenyl)cyclopropanecarboxamide] | 0.12 | – |
| O=C(Nc1ccn(-c2cnc(C(F)(F)F)nc2)n1)C1(c2ccccc2F)CC1 [Compound 381, 1-(2-fluorophenyl)-N-[1-[2-(trifluoromethyl)pyrimidin-5-yl]pyrazol-3-yl]cyclopropanecarboxamide] | > 5 | – |
| CC(C)(O)c1ncc(-n2ccc(NC(=O)C3(c4ccccc4F)CC3)n2)cn1 [Compound 382, 1-(2-fluorophenyl)-N-[1-[2-(1-hydroxy-1-methyl-ethyl)pyrimidin-5-yl]pyrazol-3-yl]cyclopropanecarboxamide] | > 5 | – |
| CC(C)(C)c1ncc(-n2ccc(NC(=O)C3(c4ccccc4F)CC3)n2)cn1 [Compound 383, N-[1-(2-tert-butylpyrimidin-5-yl)pyrazol-3-yl]-1-(2-fluorophenyl)cyclopropanecarboxamide] | > 5 | – |
| Nc1c(F)cc(-n2ccc(NC(=O)C3(c4ccccc4F)CC3)n2)cc1F [Compound 384, N-[1-(4-amino-3,5-difluoro-phenyl)pyrazol-3-yl]-1-(2-fluorophenyl)cyclopropanecarboxamide] | 0.98 | – |
| Nc1cc(-n2ccc(NC(=O)C3(c4ccccc4F)CC3)n2)ccc1F [Compound 385, N-[1-(3-amino-4-fluoro-phenyl)pyrazol-3-yl]-1-(2-fluorophenyl)cyclopropanecarboxamide] | 1.4 | – |
| Cc1cc(NC(=O)C2(c3ccccc3F)CC2)nn1-c1ccccc1 [Compound 386, 1-(2-fluorophenyl)-N-(5-methyl-1-phenyl-1H-pyrazol-3-yl)cyclopropane-1-carboxamide] | – | > 5 |
| Nc1ccc(-n2ccc(NC(=O)C3(c4ccccc4F)CC3)n2)cc1F [Compound 387, N-[1-(4-amino-3-fluoro-phenyl)pyrazol-3-yl]-1-(2-fluorophenyl)cyclopropanecarboxamide] | 1.1 | – |
| O=C(Nc1ccn(-c2cnns2)n1)C1(c2ccccc2F)CC1 [Compound 388, 1-(2-fluorophenyl)-N-[1-(thiadiazol-5-yl)pyrazol-3-yl]cyclopropanecarboxamide] | 0.037 | – |
| COc1ccccc1C1(C(=O)Nc2ccn(-c3ccnc(F)c3)n2)CC1 [Compound 389, N-[1-(2-fluoro-4-pyridyl)pyrazol-3-yl]-1-(2-methoxyphenyl)cyclopropanecarboxamide] | – | > 5 |
| O=C(Nc1ccn(-c2ncc(F)cc2F)n1)C1(c2ccccc2F)CC1 [Compound 391, N-(1-(3,5-difluoropyridin-2-yl)-1H-pyrazol-3-yl)-1-(2-fluorophenyl)cyclopropane-1-carboxamide] | 0.19 | – |
| Cn1cnc(-n2ccc(NC(=O)C3(c4ccccc4F)CC3)n2)c1 [Compound 392, 1-(2-fluorophenyl)-N-(1-(1-methyl-1H-imidazol-4-yl)-1H-pyrazol-3-yl)cyclopropane-1-carboxamide] | – | > 5 |
| Nc1cc(-n2ccc(NC(=O)C3(c4ccccc4F)CC3)n2)ccn1 [Compound 393, N-[1-(2-amino-4-pyridyl)pyrazol-3-yl]-1-(2-fluorophenyl)cyclopropanecarboxamide] | – | 1.9 |
| CN(C)c1ccc(-n2ccc(NC(=O)C3(c4ccccc4F)CC3)n2)cn1 [Compound 394, N-[1-[6-(dimethylamino)-3-pyridyl]pyrazol-3-yl]-1-(2-fluorophenyl)cyclopropanecarboxamide] | – | > 5 |

| Structure (SMILES) | IC50 [1] [µM] | IC50 (HEK293, HEK293 cells) [µM] |
| --- | --- | --- |
| O=C(Nc1ccn(-c2ccnc(OC(F)F)c2)n1)C1(c2ccccc2F)CC1 [Compound 395, N-(1-(2-(difluoromethoxy)pyridin-4-yl)-1H-pyrazol-3-yl)-1-(2-fluorophenyl)cyclopropane-1-carboxamide] | – | > 5 |
| O=C(Nc1ccn(-c2ccnc(C(F)F)c2)n1)C1(c2ccccc2F)CC1 [Compound 396, N-[1-[2-(difluoromethyl)-4-pyridyl]pyrazol-3-yl]-1-(2-fluorophenyl)cyclopropanecarboxamide] | – | > 5 |
| O=C(Nc1ccn(-c2ccc(C(F)F)nc2)n1)C1(c2ccccc2F)CC1 [Compound 397, N-[1-[6-(difluoromethyl)-3-pyridyl]pyrazol-3-yl]-1-(2-fluorophenyl)cyclopropanecarboxamide] | – | > 5 |
| O=C(Nc1ccn(-c2ccc(Cl)cn2)n1)C1(c2ccccc2F)CC1 [Compound 398, N-(1-(5-chloropyridin-2-yl)-1H-pyrazol-3-yl)-1-(2-fluorophenyl)cyclopropane-1-carboxamide] | > 5 | – |
| Nc1ncc(-n2ccc(NC(=O)C3(c4ccccc4F)CC3)n2)cc1F [Compound 399, N-[1-(6-amino-5-fluoro-3-pyridyl)pyrazol-3-yl]-1-(2-fluorophenyl)cyclopropanecarboxamide] | – | 0.28 |
| Cn1cc(-n2ccc(NC(=O)C3(c4ccccc4F)CC3)n2)nn1 [Compound 400, 1-(2-fluorophenyl)-N-(1-(1-methyl-1H-1,2,3-triazol-4-yl)-1H-pyrazol-3-yl)cyclopropane-1-carboxamide] | – | > 5 |
| Cc1cc(-n2ccc(NC(=O)C3(c4ccccc4F)CC3)n2)sn1 [Compound 401, 1-(2-fluorophenyl)-N-[1-(3-methylisothiazol-5-yl)pyrazol-3-yl]cyclopropanecarboxamide] | 2.3 | – |
| O=C(Nc1ccn(-c2ccsn2)n1)C1(c2ccccc2F)CC1 [Compound 402, 1-(2-fluorophenyl)-N-(1-isothiazol-3-ylpyrazol-3-yl)cyclopropanecarboxamide] | 0.06 | – |
| Cc1nn(C)cc1-n1ccc(NC(=O)C2(c3ccccc3F)CC2)n1 [Compound 403, N-[1-(1,3-dimethylpyrazol-4-yl)pyrazol-3-yl]-1-(2-fluorophenyl)cyclopropanecarboxamide] | > 5 | – |
| Cc1nnc(-n2ccc(NC(=O)C3(c4ccccc4F)CC3)n2)s1 [Compound 404, 1-(2-fluorophenyl)-N-[1-(5-methyl-1,3,4-thiadiazol-2-yl)pyrazol-3-yl]cyclopropanecarboxamide] | > 5 | – |
| O=C(Nc1ccn(-c2ncns2)n1)C1(c2ccccc2F)CC1 [Compound 406, 1-(2-fluorophenyl)-N-[1-(1,2,4-thiadiazol-5-yl)pyrazol-3-yl]cyclopropanecarboxamide] | 0.018 | – |
| COc1cc(-n2ccc(NC(=O)C3(c4ncccn4)CC3)n2)ccn1 [Compound 407, N-[1-(2-methoxy-4-pyridyl)pyrazol-3-yl]-1-pyrimidin-2-yl-cyclopropanecarboxamide] | – | > 5 |
| COc1ncc(-n2ccc(NC(=O)C3(c4ccccc4F)CC3)n2)s1 [Compound 408, 1-(2-fluorophenyl)-N-[1-(2-methoxythiazol-5-yl)pyrazol-3-yl]cyclopropanecarboxamide] | – | 1 |
| O=C(Nc1ccn(-c2ccc(OC(F)F)nc2)n1)C1(c2ccccc2F)CC1 [Compound 409, N-[1-[6-(difluoromethoxy)-3-pyridyl]pyrazol-3-yl]-1-(2-fluorophenyl)cyclopropanecarboxamide] | – | > 5 |
| O=C(Nc1ccn(-c2cnc(Cl)s2)n1)C1(c2ccccc2F)CC1 [Compound 410, N-[1-(2-chlorothiazol-5-yl)pyrazol-3-yl]-1-(2-fluorophenyl)cyclopropanecarboxamide] | – | 0.1 |
| COc1cnccc1-n1ccc(NC(=O)C2(c3ccccc3F)CC2)n1 [Compound 411, 1-(2-fluorophenyl)-N-[1-(3-methoxy-4-pyridyl)pyrazol-3-yl]cyclopropanecarboxamide] | – | > 5 |
| Cc1nc(C)c(-n2ccc(NC(=O)C3(c4ccccc4F)CC3)n2)s1 [Compound 413, N-[1-(2,4-dimethylthiazol-5-yl)pyrazol-3-yl]-1-(2-fluorophenyl)cyclopropanecarboxamide] | – | > 5 |
| Cc1nn(C(F)F)cc1-n1ccc(NC(=O)C2(c3ccccc3F)CC2)n1 [Compound 414, N-[1-[1-(difluoromethyl)-3-methyl-pyrazol-4-yl]pyrazol-3-yl]-1-(2-fluorophenyl)cyclopropanecarboxamide] | – | > 5 |
| Cn1ncnc1-n1ccc(NC(=O)C2(c3ccccc3F)CC2)n1 [Compound 415, 1-(2-fluorophenyl)-N-[1-(2-methyl-1,2,4-triazol-3-yl)pyrazol-3-yl]cyclopropanecarboxamide] | – | 0.09 |
| Cn1nccc1-n1ccc(NC(=O)C2(c3ccccc3F)CC2)n1 [Compound 417, 1-(2-fluorophenyl)-N-[1-(2-methylpyrazol-3-yl)pyrazol-3-yl]cyclopropanecarboxamide] | – | 0.29 |
